Test results reported in US6914045B2, “Glycopeptide antibiotics” (Wyeth Holdings Corporation, priority 2001, dated 2005).
≈ marks a conversion by molar mass, not a printed value.

What was measured:
Enterococcus sp. = assay: in vitro antibacterial evaluation, MIC by broth dilution; assay type: cell-based; conditions: broth dilution, 18 hours at 35° C.; for MIC Enterococcus faecalis (ATCC 29212): strain ATCC 29212; for MIC Enterococcus faecium (GC 2243): strain GC 2243; for MIC Enterococcus faecalis (GC 4552): strain GC 4552; for MIC Enterococcus faecalis (GC 4553): strain GC 4553; for MIC Enterococcus faecalis (GC 4554): strain GC 4554; for MIC Enterococcus faecium (GC 4556): strain GC 4556; for MIC Enterococcus faecium (GC 4557): strain GC 4557; for MIC Enterococcus avium (GC 4558): strain GC 4558; for MIC Enterococcus faecalis (GC 6189): strain GC 6189
Procedure, shortened: (§1)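 Following National Committee for Clinical Laboratory Standards recommendations (M7-A2), susceptibility was measured by dilution in Muller-Hinton II […]. Bacteria were seeded at 5×10^5 CFU/mL against compound concentrations from 64 down to 0.06 μg/mL.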

Streptococcus sp. = assay: as above; assay type: cell-based; conditions: broth dilution, 18 hours at 35° C.
Procedure, shortened: as §1

Staphylococcus sp. = assay: as above; assay type: cell-based; conditions: broth dilution, 18 hours at 35° C.; for MIC Staphylococcus aureus (GC 1131): strain GC 1131
Procedure, shortened: as §1

Escherichia coli = assay: as above; assay type: cell-based
Procedure, shortened: as §1

[1] = test system: Staphylococcus aureus-SMITH (GC 4543); assay: acute lethal infection in mice; assay type: in vivo; conditions: acute lethal infection, female CD-1 mice, intraperitoneal challenge, intravenous 30 min. after infection, 7 day survival
Procedure, shortened: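 Protocol: bacteria suspended in trypticase soy broth or hog gastric mucin injected ip into female CD-1 mice at a level killing untreated controls in 24-48 hr; compound given iv in saline or 5% dextrose 30 min post-challenge; five mice per dose; ED50 derived from pooled 7 day survival of three runs.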

CC(c1ccccc1)C1NC(=O)CNC(=O)C(CO)NC(=O)C(C(O)C2CNC(=N)N2C2OC(CO)C(O)C(O)C2O)NC(=O)C(C(O)C2CNC(=N)N2)NC(=O)C(Cc2ccc(OC3OC(CO)C(OC4OC5COC(c6cccc(-c7ccccc7)c6)OC5C(O)C4O)C(O)C3O)cc2)NC1=O (stereo not drawn) [Example 154, Cyclo[glycyl-β-methylphenylalanyl-O-[4-O-[4,6-O-(3-phenylbenzylidene)hexopyranosyl]-hexopyranosyl]tyrosyl-3-(2-iminoimidazolidin-4-yl)seryl-3-(3-hexopyranosyl-2-iminoimidazolidin-4-yl)serylseryl]]
MIC Enterococcus faecalis (GC 2242) (Enterococcus sp.; Enterococcus faecalis (GC 2242)): 2 µg/mL (≈ 1.37 µM) | MIC Enterococcus faecalis (GC 2691) (Enterococcus sp.; Enterococcus faecalis (GC 2691)): 2 µg/mL (≈ 1.37 µM) | MIC Enterococcus faecalis (GC 3059) (Enterococcus sp.; Enterococcus faecalis (GC 3059)): 2 µg/mL (≈ 1.37 µM) | MIC Enterococcus faecalis (ATCC 29212) (Enterococcus sp.; inoculum 5×10^5 CFU/mL): 2 µg/mL (≈ 1.37 µM) | MIC Enterococcus faecium (GC 2243) (Enterococcus sp.; inoculum 5×10^5 CFU/mL): 2 µg/mL (≈ 1.37 µM) | MIC Enterococcus faecalis (GC 4552) (Enterococcus sp.; inoculum 5×10^5 CFU/mL): 2 µg/mL (≈ 1.37 µM) | MIC Enterococcus faecalis (GC 4553) (Enterococcus sp.; inoculum 5×10^5 CFU/mL): 2 µg/mL (≈ 1.37 µM) | MIC Enterococcus faecalis (GC 4554) (Enterococcus sp.; inoculum 5×10^5 CFU/mL): 2 µg/mL (≈ 1.37 µM) | MIC Enterococcus faecium (GC 4556) (Enterococcus sp.; inoculum 5×10^5 CFU/mL): 2 µg/mL (≈ 1.37 µM) | MIC Enterococcus faecium (GC 4557) (Enterococcus sp.; inoculum 5×10^5 CFU/mL): 2 µg/mL (≈ 1.37 µM) | MIC Enterococcus avium (GC 4558) (Enterococcus sp.; inoculum 5×10^5 CFU/mL): 1 µg/mL (≈ 0.685 µM) | MIC Enterococcus faecalis (GC 6189) (Enterococcus sp.; inoculum 5×10^5 CFU/mL): 2 µg/mL (≈ 1.37 µM) | MIC Enterococcus faecalis (ATCC 29212) (Enterococcus sp.): 2 µg/mL (≈ 1.37 µM) | MIC Enterococcus faecalis (GC 2242) (Enterococcus sp.; strain GC 2242): 2 µg/mL (≈ 1.37 µM) | MIC Enterococcus faecium (GC 2243) (Enterococcus sp.): 2 µg/mL (≈ 1.37 µM) | MIC Enterococcus faecalis (GC 2691) (Enterococcus sp.; strain GC 2691): 2 µg/mL (≈ 1.37 µM) | MIC Enterococcus faecalis (GC 3059) (Enterococcus sp.; strain GC 3059): 2 µg/mL (≈ 1.37 µM) | MIC Enterococcus faecalis (GC 4552) (Enterococcus sp.): 2 µg/mL (≈ 1.37 µM) | MIC Enterococcus faecalis (GC 4553) (Enterococcus sp.): 2 µg/mL (≈ 1.37 µM) | MIC Enterococcus faecalis (GC 4554) (Enterococcus sp.): 2 µg/mL (≈ 1.37 µM) | MIC Enterococcus faecium (GC 4556) (Enterococcus sp.): 2 µg/mL (≈ 1.37 µM) | MIC Enterococcus faecium (GC 4557) (Enterococcus sp.): 2 µg/mL (≈ 1.37 µM) | MIC Enterococcus avium (GC 4558) (Enterococcus sp.): 1 µg/mL (≈ 0.685 µM) | MIC Enterococcus faecalis (GC 6189) (Enterococcus sp.): 2 µg/mL (≈ 1.37 µM) | MIC Streptococcus agalactiae (GC 4564) (Streptococcus sp.; Streptococcus agalactiae (GC 4564)): <0.06 µg/mL | MIC Streptococcus pneumoniae (ATCC 6301) (Streptococcus sp.; Streptococcus pneumoniae (ATCC 6301)): <0.06 µg/mL | MIC Streptococcus pneumoniae (GC 1894) (Streptococcus sp.; Streptococcus pneumoniae (GC 1894)): <0.06 µg/mL | MIC Streptococcus pneumoniae (GC 4565) (Streptococcus sp.; Streptococcus pneumoniae (GC 4565)): <0.06 µg/mL | MIC Streptococcus pyogenes (GC 4563) (Streptococcus sp.; Streptococcus pyogenes (GC 4563)): <0.06 µg/mL | MIC Streptococcus pneumoniae (ATCC 6301) (Streptococcus sp.; strain ATCC 6301): <0.06 µg/mL | MIC Streptococcus pneumoniae (GC 1894) (Streptococcus sp.; strain GC 1894): <0.06 µg/mL | MIC Streptococcus pyogenes (GC 4563) (Streptococcus sp.; strain GC 4563): <0.06 µg/mL | MIC Streptococcus agalactiae (GC 4564) (Streptococcus sp.; strain GC 4564): <0.06 µg/mL | MIC Streptococcus pneumoniae (GC 4565) (Streptococcus sp.; strain GC 4565): <0.06 µg/mL | MIC Staphylococcus aureus (GC 1131) (Staphylococcus sp.; inoculum 5×10^5 CFU/mL): 1 µg/mL (≈ 0.685 µM) | MIC Staphylococcus aureus (ATCC 29213) (Staphylococcus sp.; strain ATCC 29213): 1 µg/mL (≈ 0.685 µM) | MIC Staphylococcus aureus (GC 1131) (Staphylococcus sp.): 1 µg/mL (≈ 0.685 µM) | MIC Staphylococcus aureus (GC 3051) (Staphylococcus sp.; strain GC 3051): 1 µg/mL (≈ 0.685 µM) | MIC Staphylococcus aureus (GC 3053) (Staphylococcus sp.; strain GC 3053): 2 µg/mL (≈ 1.37 µM) | MIC Staphylococcus aureus (GC 4541) (Staphylococcus sp.; strain GC 4541): 1 µg/mL (≈ 0.685 µM) | MIC Staphylococcus aureus (GC 4542) (Staphylococcus sp.; strain GC 4542): 1 µg/mL (≈ 0.685 µM) | MIC Staphylococcus aureus-SMITH (GC 4543) (Staphylococcus sp.; strain GC 4543): 1 µg/mL (≈ 0.685 µM) | MIC Staphylococcus aureus (GC 4544) (Staphylococcus sp.; strain GC 4544): 2 µg/mL (≈ 1.37 µM) | MIC Staphylococcus aureus (GC 4545) (Staphylococcus sp.; strain GC 4545): 1 µg/mL (≈ 0.685 µM) | MIC Staphylococcus haemolyticus (GC 4546) (Staphylococcus sp.; strain GC 4546): 1 µg/mL (≈ 0.685 µM) | MIC Coagulase Negative Staphylococcus (GC 4547) (Staphylococcus sp.; strain GC 4547): 2 µg/mL (≈ 1.37 µM) | MIC Coagulase Negative Staphylococcus (GC 4548) (Staphylococcus sp.; strain GC 4548): 0.5 µg/mL (≈ 0.343 µM) | MIC Coagulase Negative Staphylococcus (GC 4549) (Staphylococcus sp.; strain GC 4549): 0.25 µg/mL (≈ 0.171 µM) | MIC Coagulase Negative Staphylococcus (GC 4551) (Staphylococcus sp.; strain GC 4551): 2 µg/mL (≈ 1.37 µM) | MIC Coagulase Negative Staphylococcus (GC 6257) (Staphylococcus sp.; strain GC 6257): 1 µg/mL (≈ 0.685 µM) | MIC Staphylococcus aureus-SMITH (GC 4543) (Staphylococcus sp.; strain SMITH GC 4543): 1 µg/mL (≈ 0.685 µM) | MIC Escherichia coli (ATCC 25922) (Escherichia coli; strain ATCC 25922, 18 hours at 35° C.): 32 µg/mL (≈ 21.9 µM) | MIC Escherichia coli (GC 4559) (Escherichia coli; strain GC 4559, 18 hours at 35° C.): 32 µg/mL (≈ 21.9 µM) | MIC Escherichia coli (GC 4560) (Escherichia coli; strain GC 4560, 18 hours at 35° C.): 2 µg/mL (≈ 1.37 µM) | median effective dose (ED50), Staphylococcus aureus-SMITH (GC 4543) [1]: 0.1 mg/kg
